Assay results reported in ChEMBL document CHEMBL1201862, “PubChem BioAssay data set” (2004).
Calls of active or inactive are those of the source.

What was measured:
[1] = biological target: T1, Neuropeptide Y receptor type 2 (Homo sapiens, UniProt P49146); assay: NPY-Y2 antagonist potency, selectivity check, dose response, counter-screen for NPY-Y1 antagonist project, cell-based (AID 1278); type: functional
T1 sequence (P49146 whole entry): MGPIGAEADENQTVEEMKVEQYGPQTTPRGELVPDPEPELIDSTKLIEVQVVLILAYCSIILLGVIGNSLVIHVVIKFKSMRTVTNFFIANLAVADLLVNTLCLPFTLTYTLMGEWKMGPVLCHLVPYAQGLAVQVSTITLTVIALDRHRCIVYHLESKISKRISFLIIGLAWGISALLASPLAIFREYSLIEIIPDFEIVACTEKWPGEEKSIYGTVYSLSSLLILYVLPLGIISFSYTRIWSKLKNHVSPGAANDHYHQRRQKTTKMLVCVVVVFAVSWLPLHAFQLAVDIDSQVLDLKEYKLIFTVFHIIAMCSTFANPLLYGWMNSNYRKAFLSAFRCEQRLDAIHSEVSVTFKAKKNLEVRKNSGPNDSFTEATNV

[2] = biological target: T2, Neuropeptide Y receptor type 1 (Homo sapiens, UniProt P25929); assay: NPY-Y1 receptor antagonist potency, dose response, cell-based (AID 1277); type: functional
T2 sequence (P25929 whole entry): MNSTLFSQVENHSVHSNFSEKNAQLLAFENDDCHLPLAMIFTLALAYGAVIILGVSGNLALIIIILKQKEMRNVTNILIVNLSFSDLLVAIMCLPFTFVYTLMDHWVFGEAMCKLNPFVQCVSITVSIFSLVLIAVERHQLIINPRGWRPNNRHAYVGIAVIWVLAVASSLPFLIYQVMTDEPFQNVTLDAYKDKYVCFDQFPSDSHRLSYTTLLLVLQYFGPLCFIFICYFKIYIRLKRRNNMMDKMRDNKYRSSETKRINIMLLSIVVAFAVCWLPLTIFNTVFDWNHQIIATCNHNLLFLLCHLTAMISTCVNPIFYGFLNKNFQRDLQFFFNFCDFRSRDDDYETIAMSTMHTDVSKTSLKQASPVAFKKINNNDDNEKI

[3] = biological target: T3, Rac GTPase-activating protein 1 (Homo sapiens, UniProt Q9H0H5); assay: MgcRacGAP GTPase-activating activity inhibitors, confirmation, biochemical, ADP Hunter fluorescence, primary and confirmatory (AID 624330); type: functional
T3 sequence (Q9H0H5 whole entry): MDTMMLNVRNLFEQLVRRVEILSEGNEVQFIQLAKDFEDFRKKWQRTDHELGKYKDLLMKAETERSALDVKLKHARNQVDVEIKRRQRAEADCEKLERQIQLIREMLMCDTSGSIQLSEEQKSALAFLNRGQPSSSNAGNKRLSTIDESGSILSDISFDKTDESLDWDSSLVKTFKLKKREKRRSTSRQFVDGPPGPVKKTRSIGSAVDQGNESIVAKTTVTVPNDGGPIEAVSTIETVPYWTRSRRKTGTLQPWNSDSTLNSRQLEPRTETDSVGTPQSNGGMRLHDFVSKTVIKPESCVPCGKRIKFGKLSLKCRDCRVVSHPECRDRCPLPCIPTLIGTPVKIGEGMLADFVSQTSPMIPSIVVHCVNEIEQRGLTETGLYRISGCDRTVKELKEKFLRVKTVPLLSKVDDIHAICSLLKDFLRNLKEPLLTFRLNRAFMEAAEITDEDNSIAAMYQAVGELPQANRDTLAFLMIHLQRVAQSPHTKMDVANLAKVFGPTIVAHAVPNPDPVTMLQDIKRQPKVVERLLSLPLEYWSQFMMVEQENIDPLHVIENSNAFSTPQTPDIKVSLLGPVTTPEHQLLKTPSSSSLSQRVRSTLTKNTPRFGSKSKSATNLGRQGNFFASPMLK

[4] = Counterscreen for IDE inhibitors: Luminescence-based cell-based high throughput dose response assay to identify compounds that are cytotoxic to HEK cells. [Related pubchem assays: 434962 (Primary screen (IDE inhibitors in singlicate)), 449730 (Counterscreen (Cytotoxicity in triplicate)), 435028 (Confirmation (IDE inhibitors in triplicate)) …; type: functional; conditions: HEK293
Insulin-degrading enzyme = biological target: T4, Insulin-degrading enzyme (Homo sapiens, UniProt P14735); assay: Dose Response: Fluorescence polarization-based cell-based high throughput dose response assay for inhibitors of insulin-degrading enzyme (IDE). [Related pubchem assays: 434962 (Primary screen (IDE inhibitors in singlicate)), 449730 (Counterscreen (Cytotoxicity in triplicate)), 435028 (Confirmation (IDE inhibitors in triplicate)), 434984 (Summary …; type: functional
T4 sequence (P14735 whole entry): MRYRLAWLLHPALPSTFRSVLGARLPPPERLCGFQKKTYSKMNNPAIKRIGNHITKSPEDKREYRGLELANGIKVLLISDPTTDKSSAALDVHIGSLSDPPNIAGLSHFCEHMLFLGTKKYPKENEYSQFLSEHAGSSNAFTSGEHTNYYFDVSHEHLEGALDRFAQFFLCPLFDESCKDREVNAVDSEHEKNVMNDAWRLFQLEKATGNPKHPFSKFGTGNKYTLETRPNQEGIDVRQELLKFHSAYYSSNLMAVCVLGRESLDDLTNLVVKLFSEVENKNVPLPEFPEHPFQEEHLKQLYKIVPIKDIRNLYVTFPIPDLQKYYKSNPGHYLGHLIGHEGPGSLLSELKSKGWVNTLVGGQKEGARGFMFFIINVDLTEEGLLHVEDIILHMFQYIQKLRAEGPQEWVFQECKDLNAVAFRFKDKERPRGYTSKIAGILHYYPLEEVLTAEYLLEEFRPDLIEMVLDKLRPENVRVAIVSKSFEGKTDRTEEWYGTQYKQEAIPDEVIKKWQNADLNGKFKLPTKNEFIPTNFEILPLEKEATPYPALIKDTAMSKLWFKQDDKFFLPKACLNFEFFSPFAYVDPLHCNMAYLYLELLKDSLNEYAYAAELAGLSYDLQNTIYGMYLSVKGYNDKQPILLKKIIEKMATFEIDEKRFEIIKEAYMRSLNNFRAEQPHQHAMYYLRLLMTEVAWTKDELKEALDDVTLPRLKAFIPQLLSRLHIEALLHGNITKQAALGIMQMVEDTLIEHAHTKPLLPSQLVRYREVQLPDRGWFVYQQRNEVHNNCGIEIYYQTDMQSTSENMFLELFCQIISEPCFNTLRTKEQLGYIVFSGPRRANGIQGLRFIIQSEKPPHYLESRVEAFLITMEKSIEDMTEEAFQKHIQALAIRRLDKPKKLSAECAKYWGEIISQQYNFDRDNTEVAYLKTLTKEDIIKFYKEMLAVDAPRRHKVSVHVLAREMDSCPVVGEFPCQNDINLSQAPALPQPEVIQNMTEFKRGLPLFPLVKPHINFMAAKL

[5] = enhancers of respiration in Yfh1-depleted yeast, dose response, Friedreich's ataxia, plus single-dose screen (AID 1465); type: functional;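 note: yeast depleted of Yfh1p frataxin homolog grown on glycerol needing respiration; WST-1 tetrazolium dye reduction as measure of cellular dehydrogenase metabolic activity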
[6] = A High Throughput Confirmatory Assay used to Identify Novel Compounds that Inhibit Mycobacterium Tuberculosis in the absence of Glycerol.; type: functional
[7] = biological target: Sphingosine 1-phosphate receptor 2 (Homo sapiens, UniProt O95136); assay: Dose Response Cell-Based Assay for Agonists of the Sphingosine 1-Phosphate Receptor 2 (S1P2): Purchased Analogues. [Related pubchem assays: 1192, 373, 439 ]; type: functional
Chain of Sphingosine 1-phosphate receptor 2 (O95136 whole entry): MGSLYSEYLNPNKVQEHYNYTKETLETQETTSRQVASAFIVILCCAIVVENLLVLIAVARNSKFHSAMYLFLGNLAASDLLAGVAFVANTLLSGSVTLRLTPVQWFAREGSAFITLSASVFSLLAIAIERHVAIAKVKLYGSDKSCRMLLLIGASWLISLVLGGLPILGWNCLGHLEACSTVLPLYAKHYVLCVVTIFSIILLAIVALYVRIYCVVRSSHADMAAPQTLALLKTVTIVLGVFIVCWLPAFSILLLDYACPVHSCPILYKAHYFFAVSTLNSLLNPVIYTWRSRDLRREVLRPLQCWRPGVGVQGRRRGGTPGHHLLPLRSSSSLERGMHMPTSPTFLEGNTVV

[8] = biological target: Sphingosine 1-phosphate receptor 1 (Homo sapiens, UniProt P21453); assay: Dose Response Cell-Based Assay for Agonists of the Sphingosine 1-Phosphate Receptor 1 (S1P1): Purchased Analogues. [Related pubchem assays: 1192, 373, 439 ]; type: functional
Chain of Sphingosine 1-phosphate receptor 1 (P21453 whole entry): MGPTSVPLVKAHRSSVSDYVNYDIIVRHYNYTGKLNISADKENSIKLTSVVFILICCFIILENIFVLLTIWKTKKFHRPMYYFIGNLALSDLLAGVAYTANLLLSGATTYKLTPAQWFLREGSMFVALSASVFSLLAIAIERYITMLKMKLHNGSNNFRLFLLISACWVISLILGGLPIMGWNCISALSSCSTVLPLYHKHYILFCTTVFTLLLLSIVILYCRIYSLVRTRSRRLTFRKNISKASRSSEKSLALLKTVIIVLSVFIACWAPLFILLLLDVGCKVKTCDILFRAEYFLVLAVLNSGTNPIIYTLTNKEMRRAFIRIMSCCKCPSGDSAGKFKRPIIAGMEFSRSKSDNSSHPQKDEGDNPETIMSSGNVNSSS

[9] = biological target: Sphingosine 1-phosphate receptor 3 (Homo sapiens, UniProt Q99500); assay: Dose Response Cell-Based Assay for Agonists of the Sphingosine 1-Phosphate Receptor 3 (S1P3): Purchased Analogues. [Related pubchem assays: 373, 439 ]; type: functional
Chain of Sphingosine 1-phosphate receptor 3 (Q99500 whole entry): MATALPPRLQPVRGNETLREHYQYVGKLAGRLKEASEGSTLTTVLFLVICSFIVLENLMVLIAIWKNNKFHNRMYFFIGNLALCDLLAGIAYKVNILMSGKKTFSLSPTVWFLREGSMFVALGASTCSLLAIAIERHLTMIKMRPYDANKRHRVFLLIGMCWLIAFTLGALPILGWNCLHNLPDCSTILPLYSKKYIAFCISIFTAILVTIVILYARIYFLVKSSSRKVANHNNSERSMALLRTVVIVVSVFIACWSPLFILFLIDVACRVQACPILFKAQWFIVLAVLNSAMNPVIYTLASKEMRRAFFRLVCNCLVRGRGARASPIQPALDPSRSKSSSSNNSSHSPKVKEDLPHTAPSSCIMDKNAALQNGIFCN

HEK293 = assay: Fluorescence-based counterscreen for potentiators or agonists of NPY-Y2: cell-based high-throughput dose response assay to identify inhibitors of cyclic nucleotide gated ion channel (CNGC) activity. In this assay, the parental HEK293 cell line transfected with a cyclic-nucleotide gated ion channel (CNGC)-based cAMP sensor is used to measure inhibition of isoproterenol-induced CNGC activity by test compound.; type: functional; conditions: Homo sapiens;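 note: stimulus is 1 µM isoproterenol at EC100 plus PDE inhibitor Ro 20-1724 at 25 µM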
[10] = biological target: T1, Neuropeptide Y receptor type 2; assay: Fluorescence-based cell-based high-throughput dose response assay for agonists of NPY-Y2. [Related pubchem assays: 1703 (Screening assay (CNGC inhibitors).), 1359 (Screening assay (NPY-Y2 potentiators or agonists).), 1304 (Screening assay (NPY-Y1 potentiators or agonists).), 1710 (Screening assay (NPY-Y2 agonists).), 1791 (Summary AID.)]; type: functional
[11] = biological target: T2, Neuropeptide Y receptor type 1; assay: Fluorescence-based counterscreen for agonists of NPY-Y2: cell-based high-throughput dose response assay for agonists of NPY-Y1.; type: functional
Estrogen receptor = biological target: T5, Estrogen receptor (Homo sapiens, UniProt P03372);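 note: potency for inhibiting coactivator peptide recruitment to the receptor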
T5 sequence (P03372 whole entry): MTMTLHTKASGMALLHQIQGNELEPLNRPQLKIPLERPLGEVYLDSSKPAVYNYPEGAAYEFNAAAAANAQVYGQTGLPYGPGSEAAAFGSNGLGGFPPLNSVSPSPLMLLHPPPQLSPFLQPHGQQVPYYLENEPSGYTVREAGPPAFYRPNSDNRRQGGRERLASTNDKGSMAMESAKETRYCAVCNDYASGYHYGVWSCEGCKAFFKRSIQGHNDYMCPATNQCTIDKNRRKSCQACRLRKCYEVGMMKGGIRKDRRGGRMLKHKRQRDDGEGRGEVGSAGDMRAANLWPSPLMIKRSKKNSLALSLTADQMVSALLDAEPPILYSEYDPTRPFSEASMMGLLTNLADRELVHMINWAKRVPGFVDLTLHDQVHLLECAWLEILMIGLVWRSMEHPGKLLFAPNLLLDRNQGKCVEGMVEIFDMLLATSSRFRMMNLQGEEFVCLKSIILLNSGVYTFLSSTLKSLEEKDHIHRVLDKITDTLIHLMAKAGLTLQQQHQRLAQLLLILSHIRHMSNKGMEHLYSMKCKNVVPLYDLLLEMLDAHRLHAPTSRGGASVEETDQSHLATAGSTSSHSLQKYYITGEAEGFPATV

Estrogen receptor beta [12] = biological target: T6, Estrogen receptor beta (Homo sapiens, UniProt Q92731);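 note: recombinant ER-beta bound to coactivator SRC1 peptide in presence of estradiol agonist; inhibitors block coactivator peptide binding and lower the FRET signal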
T6 sequence (Q92731 whole entry): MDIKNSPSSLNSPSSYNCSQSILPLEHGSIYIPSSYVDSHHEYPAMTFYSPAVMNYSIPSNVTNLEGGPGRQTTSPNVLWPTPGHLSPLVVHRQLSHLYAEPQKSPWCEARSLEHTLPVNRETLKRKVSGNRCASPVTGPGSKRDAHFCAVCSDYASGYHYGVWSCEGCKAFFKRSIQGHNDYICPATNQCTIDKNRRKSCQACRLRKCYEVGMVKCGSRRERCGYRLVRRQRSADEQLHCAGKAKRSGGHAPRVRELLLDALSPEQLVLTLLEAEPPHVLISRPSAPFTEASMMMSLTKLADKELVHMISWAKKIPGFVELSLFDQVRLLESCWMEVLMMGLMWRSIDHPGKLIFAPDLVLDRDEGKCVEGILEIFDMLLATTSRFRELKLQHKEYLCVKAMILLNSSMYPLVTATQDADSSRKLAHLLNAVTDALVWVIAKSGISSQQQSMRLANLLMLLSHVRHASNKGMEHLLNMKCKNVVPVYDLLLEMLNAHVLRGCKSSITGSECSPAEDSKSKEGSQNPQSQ

Estrogen receptor beta [13] = biological target: T6, Estrogen receptor beta; assay: ERβ–SRC-3 coactivator interaction inhibitors, confirmation, orthogonal assay, biochemical, ELISA, streptavidin-HRP readout (AID 1060)

COc1ccc(Oc2c(C)n[nH]c2-c2ccc(O)cc2O)cc1
IC50 [1]: > 35 µM (not active) | IC50 [2]: > 35 µM (not active) | IC50 [3]: 47.4 µM (active)

O=C1NC(=O)N(c2ccc3c(c2)OCO3)C(=O)/C1=C\c1ccc(N2CCCCC2)o1
IC50 [4]: > 55.7 µM (not active) | IC50 (Insulin-degrading enzyme): 21 µM (not active) | EC50 [5]: > 100 µM (active)

O=C(CCN1C(=O)/C(=C/c2ccccc2)SC1=S)Nc1ccccn1
IC50 [6]: > 100 µM (active)

NC(=O)C1CCN(C(=O)c2cc(-c3ccccc3)on2)CC1
EC50 [7]: > 10 µM (not active) | EC50 [8]: > 50 µM (not active) | EC50 [9]: > 50 µM (not active)

O=C(/C=C/c1cn(-c2ccccc2)nc1-c1cccnc1)N1CCCC1
EC50 (HEK293): > 35.4 µM (not active) | EC50 [10]: > 35.4 µM (not active) | EC50 [11]: > 35.4 µM (not active)

Cc1cc(C)c(S(=O)(=O)/N=C2\C=CC(=O)C(Cl)=C2)c(C)c1
IC50 (Estrogen receptor): 10.3 µM (active) | IC50 (Estrogen receptor beta [12]): 4.69 µM (active) | IC50 (Estrogen receptor beta [13]): 16.5 µM (not active)
